Test results: patent US12055536B2, “Device for detection of cellular stress” (Trustees of Boston University, priority 2021, dated 2024)

Key:
Assay type in all cases: cell-based, human
COV362 cells = experiment: Cell viability assay (dose-response); conditions: read-out: IC50 for cisplatin
Experimental: (§1) Cell viability was measured by MTS assay (Abcam, #ab197010) or by CellTiter-Glo™ assay (Promega, #G7570). Cells were seeded at 96-well plates at densities of 2000˜5000 cells per well overnight. Treatment was added to the cells at indicated concentrations for 72 h. Cell viability was measured by incubating with MTS reagent for 4 h and reading absorbance at 490 nm or incubating with CellTier-Glo™ reagent for 10 min and reading luminescence by a plate reader. Six replicates were used for each group.
(§2) In addition, isogenic PEO1/PEO4 cell lines derived from the same patient were studied, at the time of a platinum sensitive (PEO1) and platinum resistant-recurrence (PEO4).
(§3) Having shown decreased glucose-derived anabolism and increased fatty acid uptake in cisplatin-resistant ovarian cancer cells, whether this metabolic feature can be used for differentiation of cisplatin-resistant from cisplatin-sensitive cancer cells was explored. […] In Table 2 below, quantitation of glucose-d7 (G-d7), PA-d31, and OA-d34 are shown as area fraction of C-D signal out of total cellular area, in mean values.

COV362-cisR cells = experiment: Cell viability assay (dose-response); conditions: read-out: IC50 for cisplatin; COV362-cisR cells
Experimental: as §1, §2, §3

OVCAR5 cells [1] = experiment: Cell viability assay (dose-response); conditions: read-out: IC50 for cisplatin; OVCAR5 cells
Experimental: as §1, §2, §3

OVCAR5-cisR cells [2] = experiment: Cell viability assay (dose-response); conditions: read-out: IC50 for cisplatin; OVCAR5-CisR cells
Experimental: as §1, §2, §3

PEO1 cells [3] = experiment: Cell viability assay (dose-response); conditions: read-out: IC50 for cisplatin; PE01 cells
Experimental: as §1, §2, §3

PEO4 cells [4] = experiment: Cell viability assay (dose-response); conditions: read-out: IC50 for cisplatin; PE04 cells
Experimental: as §1, §2, §3

SKOV3-cisR cells = experiment: Cell viability assay (dose-response); conditions: read-out: IC50 for cisplatin; SKOV3-CisR cells
Experimental: as §1, §2, §3

[5] = system: cisplatin-resistant OC cell lines; experiment: Cisplatin dose response, resistant versus parental cell lines; conditions: all the resistant cell lines versus parental
Source text: Ovarian cancer cell lines used in the methods include SKOV3, PEO1, OVCAR5, and COV362, and their cisplatin-resistant counterparts include SKOV3-cisR, PEO4, OVCAR5-cisR, and COV362-cisR. SKOV3 (Cat #: HTB-77), Mia Paca2 (Cat #: CRL-1420), MDA-MB-231 (Cat #: CRM-HTB-26) and A549 (Cat #: CCL-185) cells were purchased from the American Type Culture Collection (ATCC, Manassas, VA). PEO1 (Cat #: 10032308) and PEO4 (Cat #: 10032309) were purchased from Sigma Aldrich. OVCAR5 cells were a generous gift from Dr. Marcus Peter, Northwestern University, and COV362 cells were from Dr. Kenneth Nephew, Indiana University. All cell lines were authenticated and tested to be mycoplasma negative. Mia Paca2 and A549 are in the list of known misidentified cell lines maintained by the International Cell Line Authentication Committee, while their authentication was performed by ATCC through STR profiling. […] Surviving cells were allowed to recover for 3 to 4 weeks before receiving the next treatment. […]
Cell viability was measured by MTS assay (Abcam, #ab197010) or by CellTiter-Glo™ assay (Promega, #G7570). […] Cell viability was measured by incubating with MTS reagent for 4 h and reading absorbance at 490 nm or incubating with CellTier-Glo™ reagent for 10 min and reading luminescence by a plate reader. […]

PEO1 cells [6] = experiment: OCR and ECAR by Seahorse analysis; conditions: 13.2 μM cisplatin
Experimental: (§4) Cell lines were seeded in a Seahorse® XF96 Cell Culture Microplate (Agilent) at density of 6×10^4 (OVCAR5 pair) or 4×10^4 (PEO pair) per well. After incubation at 37° C. overnight for cell attachment, OCR, and extracellular acidification rate (ECAR) were measured through Seahorse® XFe96 Analyzer (Agilent). Measurement time was 30 seconds following 3 minutes mixture and 30 seconds waiting time. First three cycles were used for basal respiration measurement. […] Basal respiration, ATP production and maximal respiration reduction were calculated following the manufacturer's instructions.

PEO4 cells [7] = experiment: OCR and ECAR by Seahorse analysis; conditions: 13.2 μM cisplatin
Experimental: as §4

OVCAR5 cells [8] = experiment: Reactive oxidative species measurement (DCFDA); conditions: cisplatin 1.6 μM or 3.3 μM for 24 hours
Experimental: (§5) Cellular reactive oxidative species (ROS) was measured using a fluorescent probe, 2′,7′-Dichlorofluorescin diacetate (DCFDA) (Sigma Aldrich). […] DCFDA was added to the medium at final concentration of 10 μM and incubated for 15 min. After washing with PBS for 3 times, cells were immediately imaged under confocal microscope (Zeiss LSM 700 microscope) with 488 nm as the exciting source. Laser power was controlled at low setting to avoid fluorescence extinction. Images at ˜10 field of view were acquired for each sample.

OVCAR5-cisR cells [9] = experiment: Reactive oxidative species measurement (DCFDA); conditions: cisplatin 1.6 μM or 3.3 μM for 24 hours
Experimental: as §5

OVCAR5 cells [10] = experiment: Glucose uptake assay (2-NBDG); conditions: 3.3 μM cisplatin for 24 hours, 100 μM 2-NBDG for 2 hours
Experimental: Glucose uptake was measured using a fluorescent glucose analog 2-deoxy-2-[(7-nitro-2,1,3-benzoxadiazol-4-yl) amino]-D-glucose (2-NBDG) (Cayman Chemicals). Cells seeded in glass-bottom dishes were incubated with 100 μM 2-NBDG for 2 h. Fluorescent images were taken by confocal microscope (Zeiss® LSM 700 microscope) with 488 nm laser as excitation source. Images at ˜10 field of view were acquired for each sample.

A549 lung cancer = experiment: Cell viability assay (dose-response); conditions: 6.6 μM cisplatin
Experimental: as §1
(§6) Platinum is widely used across malignancies. […] These findings are broadly applicable to multiple types of cisplatin-resistant cancers. FIG. 8 illustrates the cellular metabolism switch from glycolysis to fatty acid oxidation with decreased glucose uptake, glycolysis and de novo lipogenesis while fatty acid uptake and oxidation are increased.

MD-MBA231 breast cancer = experiment: Cell viability assay (dose-response); conditions: 6.6 μM cisplatin
Experimental: as §1, §6

[11] = system: MIA PaCa-2 pancreatic cancer; experiment: Cell viability assay (dose-response); conditions: 6.6 μM cisplatin
Experimental: as §1, §6

A549 cells = experiment: Isotope labeling and SRS imaging after cisplatin treatment; conditions: 13.2 μM cisplatin for 48 hours, then 100 μM PA-d31 or OA-d34 for 6 h
Experimental: (§7) For labeling with glucose-d7, media was replaced with glucose-free DMEM medium (Thermo Fisher Scientific, #11966025)+10% FBS+P/S supplemented with 25 mM glucose-d7 after seeding the cells in 35 mm glass-bottom dishes overnight. For labeling with FA or analogs, including PA-d31, OA-d34, and ODYA, FA or analogs were added to the culture media at final concentration of 100 μM and cells were treated for 6 h. For quantitative SRS imaging, cells on glass-bottom dishes were fixed with 10% neutral buffered formalin for 30 min and washed with PBS for 3 times. Hyperspectral SRS imaging was performed to the cells at Raman spectral region from 2100 to 2300 cm^−1.
as §6

MD-MBA231 cells = experiment: as above; conditions: 6.6 μM cisplatin for 24 hours, then 100 μM PA-d31 or OA-d34 for 6 h
Experimental: as §7, §6

MIA PaCa-2 cells = experiment: as above; conditions: 6.6 μM cisplatin for 24 hours, then 100 μM PA-d31 or OA-d34 for 6 h
Experimental: as §7, §6

## N.N.[Cl][Pt][Cl] [cisplatin]
COV362 cells
  IC50: 7.19 µM
COV362-cisR cells
  IC50: 15.2 µM
OVCAR5 cells [1]
  IC50: 8.26 µM
OVCAR5-cisR cells [2]
  IC50: 17.4 µM
PEO1 cells [3]
  IC50: 4.72 µM
PEO4 cells [4]
  IC50: 13.6 µM
SKOV3-cisR cells
  IC50: 17.3 µM
[5]
  increase of IC50 compared to parental counterpart cell lines: 2-3 fold
PEO1 cells [6]
  ECAR rate: promptly lowered
PEO1 cells [6]; before and 30 minutes after
  OCR: slight increase of OCR
PEO4 cells [7]
  ECAR rate: promptly lowered
PEO4 cells [7]; before and 30 minutes after
  OCR: slight increase of OCR
OVCAR5 cells [8]
  ROS production (DCF fluorescent signal intensity): significant increase of ROS production
OVCAR5-cisR cells [9]
  ROS production (DCF fluorescent signal intensity): significant increase of ROS production
OVCAR5 cells [10]
  glucose uptake, measured by 2-NBDG: reduced
A549 lung cancer
  cell death: no significant cell death
MD-MBA231 breast cancer
  cell death: no significant cell death
[11]
  cell death: no significant cell death
A549 cells
  PA-d31 and OA-d34 uptake (C-D signal): significant increase
MD-MBA231 cells
  PA-d31 and OA-d34 uptake (C-D signal): significant increase
MIA PaCa-2 cells
  uptake of PA-d31 and OA-d34 (C-D signal): significantly increased
